System: fibroblasts from patients with SDH deficiency (biallelic c.757delG)
Test: Sorbitol levels in human fibroblasts from patients with sorbitol dehydrogenase deficiency treated with aldose reductase inhibitors
Format: cell-based
Details: for reduction of sorbitol levels in comparison to vehicle control: 72 hours, SDH-deficient patient fibroblasts, sorbitol by UPLC-MS/MS normalized to protein; for sorbitol levels in SORD fibroblasts (FIG. 1 legend): FIG. 1 histogram, SORD patient fibroblasts
Experimental: Fibroblasts were obtained from skin biopsy of normal human volunteers or patients with confirmed sorbitol dehydrogenase deficiency (biallelic c.757delG). Fibroblasts were cultured in triplicate in Dulbecco's modified Eagle's medium (ThermoFisher) supplemented with 10% fetal bovine serum, penicillin and streptomycin (Gibco). Cells were grown in 5% CO2 at 37° C. in a humidified incubator. Asynchronous cell cultures were grown to approximately 80% confluency, and then treated with vehicle, Compound A (100 uM) or Compound B (10 uM) for 72 hours. Th media containing vehicle, Compound A or Compound B, was changed every 24 hours.
Sorbitol and protein were determinated from lysates of human fibroblasts. For protein measurements, fibroblasts were collected and lysed in RIPA buffer (ThermoFisher) containing protease inhibitors (Roche) and sonicated for 5 minutes using a Bioruptor sonication device (Diagenode). Protein quantification was conducted using a Coomassie assay. For sorbitol determination, a UPLC-tandem mass spectrometry (MS/MS) (Waters Acquity UPLC & TQD mass spectrometer) was used, fibroblasts were collected and lysed in RIPA buffer (ThermoFisher) and sonicated for 5 minutes using a Bioruptor sonication device (Diagenode). Cell lysates were centrifuged 13,000 g for 10 minutes at 4° C., and the supernatants were collected for protein quantification and sorbitol measurement. For Sorbitol measurements, the lysate underwent protein precipitation with acetonitrile (1:5), tenfold dilution with acetonitrile/water (50:50) and cleanup on Oasis HLB cartridges (10 mg/ml), before injection (3 ul) into the UPLC system. The UPLC conditions were as follows: column: BHE amid 1.7 um (2.1×100 mm) at 88° C.; eluent A: acetonitrile 90%/water 5%/isopropanol 5%; eluent B: acetonitrile 80%/water 20%; gradient elution, 0 minutes 100% A to 3.6 minutes 100% B; flow rate of 0.45 ml/minute. The retention time of sorbitol was 2.7 minutes. The linearity of the method was assessed between 0.25 and 50 mgl^−1. The MS/MS conditions were as follows: interface, electrospray interface in negative ion mode; multiple reaction monitory acquisition, m z 180.0-88.9 (CV 24, CE 15). The detection limit (signal-to-noise ration=3) was 0.03 mgl^−1. Sorbitol levels were normalized to protein concentration.

Row | SMILES | reduction of sorbitol levels in comparison to vehicle control (10 uM) | sorbitol levels in SORD fibroblasts (FIG. 1 legend) | reduction of sorbitol levels in comparison to vehicle control (100 uM)
1 | O=C(O)Cc1nn(Cc2nc3cc(C(F)(F)F)ccc3s2)c(=O)c2cscc12 [Compound B] | 75% | reduces sorbitol levels | 
2 | O=C(O)Cc1nn(Cc2nc3cc(C(F)(F)F)ccc3s2)c(=O)c2nccnc12 [Compound A] |  | reduces sorbitol levels | 78%

From patent US20240238288A1, “ALDOSE REDUCTASE INHIBITORS FOR TREATING SORBITOL DEHYDROGENASE DEFICIENCY” (APPLIED THERAPEUTICS, INC., priority 2020, published 2024)
